Columns and labels:
chymotrypsin = conditions: selectivity for PSA; cited from earlier work
PSA = PSA (Homo sapiens, UniProt P07288); assay: Substrate hydrolysis assay of Abz-peptide spots with purified PSA; format: biochemical; conditions: for hydrolysis / substrate activity (in words): compared with c0
Chain of PSA (P07288 25-261): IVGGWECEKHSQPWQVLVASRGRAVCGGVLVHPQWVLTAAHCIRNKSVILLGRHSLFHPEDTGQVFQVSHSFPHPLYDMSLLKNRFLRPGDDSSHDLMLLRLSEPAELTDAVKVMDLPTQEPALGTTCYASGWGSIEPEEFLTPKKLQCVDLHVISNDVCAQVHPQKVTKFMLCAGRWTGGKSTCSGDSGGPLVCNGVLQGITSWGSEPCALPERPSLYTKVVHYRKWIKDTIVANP

Substance	hydrolysis by chymotrypsin (chymotrypsin)	hydrolysis / substrate activity (in words) (PSA)	increase in the hydrolysis rate compared to c0 (PSA; versus c0) [fold]
HSSKLQ	no detectable hydrolysis	–	–
GSSKPQ [c4]	–	almost complete loss of hydrolysis activity	–
GSSKYQ [c3]	–	high substrate activity	–
GSAKLQ [c7]	–	high activity for PSA hydrolysis	2

Source: article PMC4559854 (Proteins, 2009)
